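Growth conditions: 96-well plates. Treatment: test compound, 48 hours, 5 concentrations. Analysis: linear interpolation between bracketing concentrations; unreached endpoints set to highest concentration. Definition used: TGI = concentration required for complete inhibition of growth.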
What was measured:
Assay in all cases: NCI anticancer screen, dose series, 48 h
[1] = test system: SNB-75 CNS
[2] = test system: CAKI-1 renal
[3] = test system: DLD-1 colon
[4] = test system: DMS 114 small cell lung
[5] = test system: 786-0 renal
[6] = test system: OVCAR-3 ovarian
[7] = test system: SF-268 CNS
[8] = test system: CCRF-CEM leukemia
[9] = test system: SK-MEL-2 melanoma
[10] = test system: KM20L2 colon
[11] = test system: HCT-15 colon
[12] = test system: UO-31 renal
[13] = test system: A498 renal
[14] = test system: A549 NSCLC
[15] = test system: K-562 leukemia
[16] = test system: NCI-H460 lung
[17] = test system: EKVX NSCLC
[18] = test system: SK-MEL-5 melanoma
[19] = test system: IGROV1 ovarian
[20] = test system: TK-10 renal
[21] = test system: OVCAR-8 ovarian
[22] = test system: HCC-2998 colon
[23] = test system: SN12C renal
[24] = test system: NCI-H23 lung
[25] = test system: LOX IMVI melanoma
[26] = test system: KM12 colon
[27] = test system: MALME-3M melanoma
[28] = test system: SK-MEL-28 melanoma
[29] = test system: LXFL 529 NSCLC
[30] = test system: MOLT-4 leukemia
[31] = test system: SF-295 CNS
[32] = test system: DMS 273 small cell lung
[33] = test system: UACC-257 melanoma
[34] = test system: HT29 colon
[35] = test system: U251 CNS
[36] = test system: SNB-19 CNS
[37] = test system: SNB-78 CNS
[38] = test system: OVCAR-5 ovarian
[39] = test system: RPMI-8226 leukemia
[40] = test system: ACHN renal
[41] = test system: OVCAR-4 ovarian
[42] = test system: SW-620 colon
[43] = test system: RXF 393 renal
[44] = test system: COLO 205 colon
[45] = test system: NCI-H226 lung
[46] = test system: UACC-62 melanoma
[47] = test system: HOP-18 NSCLC
[48] = test system: SK-OV-3 ovarian
[49] = test system: HL-60(TB) leukemia
[50] = test system: HOP-62 NSCLC
[51] = test system: NCI-H522 lung
[52] = test system: HCT-116 colon
[53] = test system: HOP-92 NSCLC
[54] = test system: SR leukemia
[55] = test system: M19-MEL melanoma
[56] = test system: M14 melanoma
[57] = test system: SF-539 CNS

COC1C(OC(=O)c2ccc(C)[nH]2)C(O)C(Oc2ccc3c(O)c(NC(=O)c4c[nH]c(C(=O)Nc5c(O)c6ccc(OC7OC(C)(C)C(OC)C(OC(=O)c8ccc(C)[nH]8)C7O)c(C)c6oc5=O)c4C)c(=O)oc3c2C)OC1(C)C (stereo not drawn)
TGI [1]: 4.85 µM | TGI [2]: 6.08 µM | TGI [3]: 6.08 µM | TGI [4]: 6.75 µM | TGI [5]: 5.42 µM | TGI [6]: 41.1 µM | TGI [7]: 7.44 µM | TGI [8]: 10.6 µM | TGI [9]: 4.42 µM | TGI [10]: 15.6 µM | TGI [11]: 7.06 µM | TGI [12]: 2.94 µM | TGI [13]: 4.8 µM | TGI [14]: 61.3 µM | TGI [15]: > 100 µM | TGI [16]: 6.62 µM | TGI [17]: 19.2 µM | TGI [18]: 6.51 µM | TGI [19]: 3.62 µM | TGI [20]: 37.3 µM | TGI [21]: > 100 µM | TGI [22]: 7.26 µM | TGI [23]: 7.16 µM | TGI [24]: 3.84 µM | TGI [25]: 9.4 µM | TGI [26]: 8.89 µM | TGI [27]: 5.02 µM | TGI [28]: 2.25 µM | TGI [29]: 8.03 µM | TGI [30]: 8.47 µM | TGI [31]: > 100 µM | TGI [32]: 12.2 µM | TGI [33]: 33.5 µM | TGI [34]: 16.1 µM | TGI [35]: 2.89 µM | TGI [36]: 6.1 µM | TGI [37]: 7.37 µM | TGI [38]: 9.96 µM | TGI [39]: 4.83 µM | TGI [40]: 9.43 µM | TGI [41]: 6.82 µM | TGI [42]: 45.9 µM | TGI [43]: 2.23 µM | TGI [44]: 4.38 µM | TGI [45]: 3.84 µM | TGI [46]: 2.37 µM | TGI [47]: 3.37 µM | TGI [48]: 4.58 µM

NC(CCCC(N)P(=O)(O)O)C(=O)O (stereo not drawn)
TGI [4]: > 100 µM | TGI [7]: > 100 µM | TGI [8]: > 100 µM | TGI [49]: > 100 µM | TGI [10]: > 100 µM | TGI [12]: > 100 µM | TGI [13]: > 100 µM | TGI [16]: > 100 µM | TGI [17]: > 100 µM | TGI [19]: > 100 µM | TGI [20]: > 100 µM | TGI [50]: > 100 µM | TGI [21]: > 100 µM | TGI [51]: > 100 µM | TGI [24]: > 100 µM | TGI [52]: > 100 µM | TGI [26]: > 100 µM | TGI [28]: > 100 µM | TGI [30]: > 100 µM | TGI [31]: > 100 µM | TGI [32]: > 100 µM | TGI [53]: > 100 µM | TGI [54]: > 100 µM | TGI [33]: > 100 µM | TGI [34]: > 100 µM | TGI [35]: > 100 µM | TGI [36]: > 100 µM | TGI [37]: > 100 µM | TGI [38]: > 100 µM | TGI [40]: > 100 µM | TGI [55]: > 100 µM | TGI [43]: > 100 µM | TGI [45]: > 100 µM | TGI [46]: > 100 µM | TGI [56]: > 100 µM | TGI [48]: > 100 µM

O=C1C2C(C(=O)N1c1ccccc1)C1c3ccccc3C2C2C(=O)N(c3ccccc3)C(=O)C21 (stereo not drawn)
TGI [1]: 22.6 µM | TGI [2]: > 100 µM | TGI [3]: 8.92 µM | TGI [4]: 27 µM | TGI [5]: > 100 µM | TGI [6]: > 100 µM | TGI [7]: > 100 µM | TGI [8]: > 100 µM | TGI [9]: 6.52 µM | TGI [49]: 44.9 µM | TGI [10]: 42.8 µM | TGI [11]: > 100 µM | TGI [12]: > 100 µM | TGI [13]: > 100 µM | TGI [14]: > 100 µM | TGI [15]: > 100 µM | TGI [16]: > 100 µM | TGI [17]: > 100 µM | TGI [18]: > 100 µM | TGI [57]: 31.4 µM | TGI [19]: > 100 µM | TGI [20]: > 100 µM | TGI [21]: > 100 µM | TGI [51]: 8.07 µM | TGI [22]: 24.7 µM | TGI [23]: > 100 µM | TGI [24]: > 100 µM | TGI [25]: > 100 µM | TGI [52]: > 100 µM | TGI [26]: > 100 µM | TGI [27]: 67.8 µM | TGI [28]: > 100 µM | TGI [29]: > 100 µM | TGI [30]: > 100 µM | TGI [31]: 15.5 µM | TGI [32]: 53.2 µM | TGI [53]: > 100 µM | TGI [33]: > 100 µM | TGI [34]: > 100 µM | TGI [35]: 11.5 µM | TGI [36]: > 100 µM | TGI [38]: 99.5 µM | TGI [39]: > 100 µM | TGI [40]: > 100 µM | TGI [41]: > 100 µM | TGI [42]: > 100 µM | TGI [55]: > 100 µM | TGI [43]: > 100 µM | TGI [44]: > 100 µM | TGI [45]: > 100 µM | TGI [46]: > 100 µM | TGI [47]: > 100 µM | TGI [56]: > 100 µM | TGI [48]: > 100 µM

CCCn1c(SCCSc2c3ccccc3c(-c3nc(F)nc(F)n3)n2CCC)c2ccccc2c1-c1nc(F)nc(F)n1
TGI [1]: > 100 µM | TGI [2]: > 100 µM | TGI [3]: 40.4 µM | TGI [5]: > 100 µM | TGI [6]: > 100 µM | TGI [7]: > 100 µM | TGI [8]: > 100 µM | TGI [9]: > 100 µM | TGI [49]: > 100 µM | TGI [10]: > 100 µM | TGI [11]: > 100 µM | TGI [12]: > 100 µM | TGI [14]: > 100 µM | TGI [15]: > 100 µM | TGI [16]: > 100 µM | TGI [17]: > 100 µM | TGI [57]: > 100 µM | TGI [20]: > 100 µM | TGI [50]: > 100 µM | TGI [21]: > 100 µM | TGI [51]: > 100 µM | TGI [22]: > 100 µM | TGI [23]: > 100 µM | TGI [24]: > 100 µM | TGI [52]: > 100 µM | TGI [26]: > 100 µM | TGI [27]: > 100 µM | TGI [28]: > 100 µM | TGI [29]: > 100 µM | TGI [30]: > 100 µM | TGI [31]: > 100 µM | TGI [32]: > 100 µM | TGI [53]: > 100 µM | TGI [54]: 60.4 µM | TGI [33]: > 100 µM | TGI [34]: > 100 µM | TGI [35]: > 100 µM | TGI [36]: > 100 µM | TGI [37]: > 100 µM | TGI [38]: > 100 µM | TGI [39]: 79.7 µM | TGI [40]: > 100 µM | TGI [41]: > 100 µM | TGI [42]: 32.6 µM | TGI [43]: > 100 µM | TGI [44]: > 100 µM | TGI [46]: > 100 µM | TGI [47]: > 100 µM | TGI [56]: > 100 µM | TGI [48]: > 100 µM
